Laboratory results: US20070010465A1 (priority 2005, published 2007)

Legend:
[1] = tested on: acute myelogenous leukemia; conditions: valspodar arm, enrollment halted; cited from earlier work
[2] = several oncolytics, preclinical models; cited from earlier work
P-gp = biological target: T1, P-gp (Homo sapiens, UniProt P08183); test: cellular P-gp function, DiOC2 accumulation assay with flow cytometry on circulating NK cells and leukemic blasts; assay type: in vivo, Patients with AML
T1 construct: Pharmacodynamic assessments of cellular P-gp function were conducted using an accumulation assay with DiOC2 and flow cytometry; endogenous in cells; host or cells: circulating NK cells and leukemic blasts from AML patients
Procedure: Cytarabine was also administered (100 mg/m^2/day) starting after the first dose of daunorubicin as a continuous intravenous infusion on days 1-7. Blood samples were taken at intervals for pharmacokinetic and pharmacodynamic studies. Pharmacokinetic drug determinations were conducted by HPLC. Pharmacodynamic assessments of cellular P-gp function were conducted using an accumulation assay with DiOC2 and flow cytometry. P-gp function was assessed on circulating natural killer (NK) cells and leukemic blasts. […] Means of 3 patients for each time point are shown.

T1 sequence (P08183 whole entry): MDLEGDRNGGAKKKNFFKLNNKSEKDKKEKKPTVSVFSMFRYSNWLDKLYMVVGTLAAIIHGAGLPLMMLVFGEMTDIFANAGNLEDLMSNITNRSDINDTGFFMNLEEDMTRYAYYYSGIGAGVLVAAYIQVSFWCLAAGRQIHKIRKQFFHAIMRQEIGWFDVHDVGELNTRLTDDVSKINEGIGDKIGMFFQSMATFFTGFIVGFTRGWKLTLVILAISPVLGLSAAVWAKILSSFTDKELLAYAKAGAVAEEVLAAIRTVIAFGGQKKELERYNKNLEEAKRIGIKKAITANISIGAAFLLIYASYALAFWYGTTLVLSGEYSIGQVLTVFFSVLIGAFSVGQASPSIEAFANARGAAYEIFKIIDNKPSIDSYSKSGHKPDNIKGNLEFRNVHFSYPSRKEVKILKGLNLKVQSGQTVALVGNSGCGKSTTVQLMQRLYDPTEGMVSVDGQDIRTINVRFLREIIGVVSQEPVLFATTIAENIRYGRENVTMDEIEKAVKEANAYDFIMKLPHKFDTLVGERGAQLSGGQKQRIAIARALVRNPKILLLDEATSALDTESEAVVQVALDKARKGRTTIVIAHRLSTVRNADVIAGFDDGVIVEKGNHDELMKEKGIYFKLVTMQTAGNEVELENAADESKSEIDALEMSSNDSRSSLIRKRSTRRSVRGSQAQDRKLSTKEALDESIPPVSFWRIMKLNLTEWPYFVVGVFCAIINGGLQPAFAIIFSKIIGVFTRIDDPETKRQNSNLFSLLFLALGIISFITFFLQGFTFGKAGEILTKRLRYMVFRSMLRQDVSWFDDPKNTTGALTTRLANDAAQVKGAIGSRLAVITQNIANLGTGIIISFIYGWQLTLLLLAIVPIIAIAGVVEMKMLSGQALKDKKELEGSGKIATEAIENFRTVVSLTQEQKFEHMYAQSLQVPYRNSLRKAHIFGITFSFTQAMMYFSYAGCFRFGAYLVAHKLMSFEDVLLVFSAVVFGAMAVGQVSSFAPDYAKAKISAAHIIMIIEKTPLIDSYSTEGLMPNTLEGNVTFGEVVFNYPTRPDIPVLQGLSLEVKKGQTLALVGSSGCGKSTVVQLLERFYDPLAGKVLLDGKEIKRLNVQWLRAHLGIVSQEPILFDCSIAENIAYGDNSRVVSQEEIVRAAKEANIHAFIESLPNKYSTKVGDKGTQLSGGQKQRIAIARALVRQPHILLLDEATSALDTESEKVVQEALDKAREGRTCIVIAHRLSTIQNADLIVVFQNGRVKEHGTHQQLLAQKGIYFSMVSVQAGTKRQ

SMILES	early mortality [1]	pharmacokinetic (PK) interactions with oncolytics [2]	time to potent inhibition of P-gp function after start of zosuquidar infusion (P-gp; 700 mg/day continuous intravenous infusion) [h]	duration of inhibition of P-gp functional activity after zosuquidar infusion was halted (P-gp; after 72 hour infusion)
C/C=C/C[C@@H](C)C(=O)[C@H]1C(=O)N[C@@H](C(C)C)C(=O)N(C)CC(=O)N(C)[C@@H](CC(C)C)C(=O)N[C@@H](C(C)C)C(=O)N(C)[C@@H](CC(C)C)C(=O)N[C@@H](C)C(=O)N[C@H](C)C(=O)N(C)[C@@H](CC(C)C)C(=O)N(C)[C@@H](CC(C)C)C(=O)N(C)[C@@H](C(C)C)C(=O)N1C [valspodar]	excessive early mortality			
O[C@@H](COc1cccc2ncccc12)CN1CCN([C@@H]2c3ccccc3[C@@H]3[C@H](c4ccccc42)C3(F)F)CC1 [Zosuquidar]		minimal	≤ 2	at least 12 hours
